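1) Cells in 96-well plates. 2) Compound, 48 h, 5 concentrations. 3) Linear interpolation between surrounding doses. 4) Unreached endpoint = highest concentration. At the GI50, growth is halved. The concentration for full growth arrest is given as TGI.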
Key:
Assay in all cases: DTP human tumour cell line panel, 48 h
[1] = system: RXF 393 renal
[2] = system: KM12 colon
[3] = system: M14 melanoma
[4] = system: A549 NSCLC
[5] = system: OVCAR-3 ovarian
[6] = system: SK-MEL-2 melanoma
[7] = system: ACHN renal
[8] = system: MCF7 breast
[9] = system: DU-145 prostate
[10] = system: T-47D breast

COc1c(Sc2ccccc2)cc(Sc2ccccc2)c2cccnc12
TGI [1]: 51.5 µM
TGI [2]: > 100 µM
TGI [3]: > 100 µM
TGI [4]: > 100 µM
TGI [5]: 61.2 µM
TGI [6]: 42.6 µM
TGI [7]: > 100 µM

CC1=NOC(=O)C1N=Nc1ccc(Br)c(C)c1 (stereo not drawn)
TGI [1]: 43.1 µM
TGI [2]: 78 µM
TGI [3]: 36.1 µM
TGI [4]: 46 µM
TGI [5]: 33.6 µM
TGI [6]: 30.7 µM
TGI [7]: 32 µM

CC[C@]1(O)C[C@@H]2CN(CCc3c([nH]c4ccccc34)[C@@](C(=O)OC)(c3cc4c(cc3OC)N(C)[C@H]3[C@@](O)(C(N)=O)[C@H](O)[C@]5(CC)[C@@H]6C[C@@H]6CN6CC[C@]43[C@@H]65)C2)C1
GI50 [1]: 0.0153 µM
TGI [1]: > 33.3 µM
GI50 [2]: < 0.00333 µM
TGI [2]: > 29.8 µM
GI50 [8]: < 0.00333 µM
TGI [8]: > 18.2 µM
GI50 [3]: 0.00605 µM
TGI [3]: 0.956 µM
GI50 [9]: < 0.00333 µM
TGI [9]: 0.795 µM
GI50 [4]: 0.0128 µM
TGI [4]: > 33.3 µM
GI50 [5]: < 0.00333 µM
TGI [5]: 0.0818 µM
GI50 [6]: < 0.00333 µM
GI50 [7]: 0.161 µM
TGI [7]: > 33.3 µM

COC(=O)[C@H]1N[C@@H](C(=O)OC)C23CCC[C@H]2CC[C@]1(C(OC)OC)C3
TGI [2]: > 100 µM
TGI [3]: > 100 µM
TGI [4]: > 100 µM
TGI [6]: > 100 µM
TGI [7]: > 100 µM

COc1ccc(/C=C\c2cc(OC)c(OC)c(OC)c2)c(NS(=O)(=O)c2ccc(Cl)cc2)c1O
GI50 [1]: 0.0355 µM
TGI [1]: 10.7 µM
GI50 [2]: 0.127 µM
TGI [2]: 12.8 µM
GI50 [8]: 0.0384 µM
TGI [8]: > 100 µM
GI50 [3]: 0.0913 µM
TGI [3]: 56.3 µM
GI50 [9]: 0.2 µM
TGI [9]: > 100 µM
GI50 [4]: 0.27 µM
TGI [4]: > 100 µM
GI50 [5]: 0.0602 µM
TGI [5]: 10.7 µM
GI50 [6]: 0.0659 µM
TGI [6]: 21.3 µM
GI50 [7]: 0.0838 µM
TGI [7]: 30.7 µM

COc1nc(C)cc2c(=O)n(-c3ccccc3)n(CC(O)CN3CCN(c4ccc(Cl)cc4)CC3)c(=O)c12 (stereo not drawn)
GI50 [2]: > 50 µM
TGI [2]: > 50 µM
GI50 [8]: 46.1 µM
TGI [8]: > 50 µM
GI50 [3]: > 50 µM
TGI [3]: > 50 µM
GI50 [9]: > 50 µM
TGI [9]: > 50 µM
GI50 [4]: > 50 µM
TGI [4]: > 50 µM
GI50 [5]: 34.3 µM
TGI [5]: > 50 µM
GI50 [10]: > 50 µM
TGI [10]: > 50 µM
GI50 [6]: 43.1 µM
TGI [6]: > 50 µM
GI50 [7]: 43.3 µM
TGI [7]: > 50 µM

CCN(CC)CCOc1c(OC)c(Br)cc2c(C)c(C(=O)OC)oc12
GI50 [1]: 4.17 µM
TGI [1]: 13 µM
GI50 [2]: 0.569 µM
TGI [2]: 1.98 µM
GI50 [8]: 1.63 µM
TGI [8]: 5.74 µM
GI50 [3]: 1.18 µM
TGI [3]: 4.4 µM
GI50 [4]: 10 µM
TGI [4]: 20.2 µM
GI50 [5]: 0.982 µM
TGI [5]: 2.28 µM
GI50 [10]: 0.188 µM
TGI [10]: 0.488 µM
GI50 [6]: 3.17 µM
TGI [6]: 50 µM
GI50 [7]: 0.899 µM
TGI [7]: 2.08 µM

NC(=O)c1csc(C2CCC(CO)O2)n1 (stereo not drawn)
TGI [2]: > 100 µM
TGI [3]: > 100 µM
TGI [4]: > 100 µM
TGI [5]: > 100 µM
TGI [6]: > 100 µM
TGI [7]: > 100 µM

CS(=O)(=O)NNS(=O)(=O)c1ccc(Cl)cc1
TGI [1]: > 100 µM
TGI [2]: > 100 µM
TGI [3]: > 100 µM
TGI [4]: > 100 µM
TGI [5]: > 100 µM
TGI [6]: > 100 µM
TGI [7]: > 100 µM

Source: PubChem BioAssay (NCI)
